{"source": "patent US20160089464A1", "about": "“MALODOR REDUCTION COMPOSITIONS” (The Procter & Gamble Company, priority 2014, published 2016)", "data": [{"test": "Comment Code material properties: vapor pressure, ClogP, probability of ingredient color instability, odor detection threshold, melamine formaldehyde PMC headspace response ratio and leakage, liquid dish neat product liquid-air partition coefficient", "format": "physicochemical", "details": "Table 1 materials; each letter of the code is one property class (vapor pressure, ClogP, color instability, odor detection threshold, PMC headspace ratio, PMC leakage, liquid dish liquid-air partition coefficient)", "values": [{"compound": "CC(=CCCC1(C)C2CC3C(C2)C31C)CO", "note": "(stereo not shown) [Material 694]", "Comment Code": "DEFHJK"}, {"compound": "CC1=CC2CC(C3OCCO3)C1CC2C(C)C", "note": "(stereo not shown) [Material 912]", "Comment Code": "DEFHJK"}, {"compound": "CCCCCC=COC(C)=O", "note": "[Material 869]", "Comment Code": "ACEFHKL"}, {"compound": "COC1(C)CCC23CC1C(C)(C)C2CCC3C", "note": "(stereo not shown) [Material 565]", "Comment Code": "ADEFHJK"}, {"compound": "C=CC/C=C/CCC(=O)OC", "note": "[Material 668]", "Comment Code": "ACEFHKL"}, {"compound": "CC(OC(C)(C)COC(=O)C1CC1)C1CCCC(C)(C)C1", "note": "(stereo not shown) [Material 1032]", "Comment Code": "DEFHJ"}, {"compound": "CCCCCCCC(C)=O", "note": "[Material 840]", "Comment Code": "ADFHIKL"}, {"compound": "CC1=CC(C)C2(CCCC(C)(C)C2=O)CC1", "note": "(stereo not shown) [Material 1022]", "Comment Code": "DHIJK"}, {"compound": "COCCOC(C)OCc1ccccc1", "note": "(stereo not shown) [Material 768]", "Comment Code": "BCEFHJK"}, {"compound": "CC1=CCC(CCC(C)CO)C1(C)C", "note": "(stereo not shown) [Material 600]", "Comment Code": "DEFHJK"}, {"compound": "C=CCOC(=O)COCCC(C)C", "note": "[Material 748]", "Comment Code": "BCEFGJK"}, {"compound": "CC1CCC2=C1CC1CCC2(C)C1(C)C", "note": "(stereo not shown) [Material 621]", "Comment Code": "BDEFGJKL"}, {"compound": "C=CCc1ccc2c(c1)OCO2", "note": "[Material 1021]", "Comment Code": "BCEFHK"}, {"compound": "C=C/C(C)=C/CC=C(C)C", "note": "[Material 1077]", "Comment Code": "ADGIKL"}, {"compound": "C=CC=CC=CCCCCC", "note": "[Material 876]", "Comment Code": "ADEFHJKL"}, {"compound": "CC1=CCC(CCC(C)C(C)O)C1(C)C", "note": "(stereo not shown) [Material 1023]", "Comment Code": "DEFHJK"}, {"compound": "C/C(=C\\C#N)CCc1ccccc1", "note": "[Material 894]", "Comment Code": "CEFHJK"}, {"compound": "CCCCCCCC=CC=O", "note": "[Material 856]", "Comment Code": "ADHKL"}, {"compound": "C=C(C)C1CCC2(C)CCCC(=C)C2C1", "note": "(stereo not shown) [Material 615]", "Comment Code": "BDEFGJK"}, {"compound": "CC(C)c1ccc(CCC=O)cc1", "note": "[Material 826]", "Comment Code": "BDFHJK"}, {"compound": "CC1C[C@H]2C3CCC(C3)[C@H]2CC1=O", "note": "(stereo partly shown) [Material 980]", "Comment Code": "CEFGJKL"}, {"compound": "CC1(O)CCC2=C(CCCC2(C)C)C1", "note": "(stereo not shown) [Material 675]", "Comment Code": "DEFHJK"}, {"compound": "c1ccc(CCOC2CCCCC2)cc1", "note": "[Material 953]", "Comment Code": "DEFHJK"}, {"compound": "CC1=CCC(C23CCCC(C)(C2)OC3)C1(C)C", "note": "(stereo not shown) [Material 570]", "Comment Code": "DEFHJK"}, {"compound": "CC1=CC2C(C(C)C)CCC(C)(O)C2CC1", "note": "(stereo not shown) [Material 1046]", "Comment Code": "DEFHJK"}, {"compound": "CCCOC(C)OCCC", "note": "[Material 767]", "Comment Code": "ACEFGIKL"}, {"compound": "CC1CC2CCC3C(C2O1)C(C)(C)C(C)C3(C)C", "note": "(stereo not shown) [Material 1097]", "Comment Code": "BDEFHJK"}]}, {"test": "Comment Code material properties: vapor pressure, ClogP, probability of ingredient color instability, odor detection threshold, melamine formaldehyde PMC headspace response ratio and leakage, liquid dish neat product liquid-air partition coefficient", "format": "physicochemical", "details": "cell strings several class symbols together; each letter is one property class of L1", "values": [{"compound": "CC(C)=CCC/C(C)=C\\COC=O", "note": "[Material 59]", "Comment Code": "BCEFHJK"}, {"compound": "CCCCCCOC(=O)c1ccco1", "note": "[Material 275]", "Comment Code": "DEFHJK"}, {"compound": "CCC(C)(C)C1CCC(O)CC1", "note": "(stereo not shown) [Material 995]", "Comment Code": "BDEFHIJK"}, {"compound": "CCCC(=O)OC1CC2CC1C1CC=CC21", "note": "(stereo not shown) [Material 484]", "Comment Code": "DEFHJK"}, {"compound": "CCC(C)C(=O)OC(C)C", "note": "(stereo not shown) [Material 198]", "Comment Code": "ACEFGIJKL"}, {"compound": "C=CC(C)(C#N)Cc1ccccc1", "note": "(stereo not shown) [Material 504]", "Comment Code": "BDHJK"}, {"compound": "C=C1[C@H]2CC[C@H](CO)[C@@]23CC[C@H](C3)C1(C)C", "note": "[Material 183]", "Comment Code": "CEFHJK"}, {"compound": "CC(=CCCC1(C)C2CC3C(C2)C31C)CO", "note": "(stereo not shown) [Material 694]", "Comment Code": "DEFHJK"}, {"compound": "CC=CC(=O)OCCCCCC", "note": "[Material 55]", "Comment Code": "ADEFHJKL"}, {"compound": "CCCCCCCC1(C)OCC(C)O1", "note": "(stereo not shown) [Material 838]", "Comment Code": "BDEFHJK"}, {"compound": "CC(=O)OC1CC2CC1C1CC=CC21", "note": "(stereo not shown) [Material 281]", "Comment Code": "CEFGJK"}, {"compound": "COC(=O)C=C1CCCC1", "note": "[Material 116]", "Comment Code": "ACEFHIKL"}, {"compound": "COC1(C)CCC23CC1C(C)(C)C2CCC3C", "note": "(stereo not shown) [Material 565]", "Comment Code": "BDEFHJK"}, {"compound": "c1ccc(COCc2ccccc2)cc1", "note": "[Material 454]", "Comment Code": "DEFHJK"}, {"compound": "C=CCOC(=O)COC1CCCCC1", "note": "[Material 918]", "Comment Code": "CHJK"}, {"compound": "CC1=CC(C)C2(CCCC(C)(C)C2=O)CC1", "note": "(stereo not shown) [Material 1022]", "Comment Code": "DHIJK"}, {"compound": "C=C1C=CC(C(C)C)CC1", "note": "(stereo not shown) [Material 619]", "Comment Code": "ADEFGIJKL"}, {"compound": "O=C(OCc1ccccc1)c1ccccc1O", "note": "[Material 641]", "Comment Code": "DFGJ"}, {"compound": "CC1(C)CCc2ccc(CCC=O)cc21", "note": "[Material 260]", "Comment Code": "DHJK"}, {"compound": "CC(=O)CCc1ccc(O)cc1", "note": "[Material 1002]", "Comment Code": "CEFGIK"}, {"compound": "C=C(C)C1CCC(C)(O)C1C", "note": "(stereo not shown) [Material 981]", "Comment Code": "BCEFGIJKL"}, {"compound": "CC1CCC2=C1CC1CCC2(C)C1(C)C", "note": "(stereo not shown) [Material 621]", "Comment Code": "BDEFGJKL"}, {"compound": "CC1CC(=O)CC(C)(C)C1", "note": "(stereo not shown) [Material 439]", "Comment Code": "ACEFGIJKL"}, {"compound": "O=COCCc1ccccc1", "note": "[Material 956]", "Comment Code": "ACEFHK"}, {"compound": "Cc1ccc2ncccc2c1", "note": "[Material 777]", "Comment Code": "BCEFHIKL"}, {"compound": "C=CC(C)=CCC1OC1(C)C", "note": "(stereo not shown) [Material 73]", "Comment Code": "ADGIJKL"}, {"compound": "CC=CC(=O)C1C(C)=CCCC1(C)C", "note": "(stereo not shown) [Material 880]", "Comment Code": "BDHIJK"}, {"compound": "CC1=CCC2CC1C2(C)C", "note": "(stereo not shown) [Material 1001]", "Comment Code": "ADEFGIJKL"}, {"compound": "C1CC2C3CC(C2C1)C1(CCCO1)C3", "note": "(stereo not shown) [Material 1137]", "Comment Code": "DEFGJKL"}, {"compound": "C=C(C)C(=O)OCCc1ccccc1", "note": "[Material 971]", "Comment Code": "DHJK"}, {"compound": "CC(C)c1ccc(CC=O)cc1", "note": "[Material 977]", "Comment Code": "BDFHK"}, {"compound": "CCOC(=O)[C@@H]1[C@@H](C)CCCC1(C)C", "note": "[Material 1058]", "Comment Code": "ADEFHIJKL"}, {"compound": "CC(O)C(C)/C=C1\\C[C@H]2C[C@@H]1[C@@H]1C=CC[C@H]21", "note": "(stereo partly shown) [Material 359]", "Comment Code": "DEFHJK"}, {"compound": "CC1CCC2(CCCC(=O)O2)C1", "note": "(stereo not shown) [Material 107]", "Comment Code": "BCEFGIKL"}, {"compound": "CC(C)CC=C(C=O)C(C)C", "note": "[Material 847]", "Comment Code": "ADFGIJKL"}, {"compound": "CC1=CCC(C23CCCC(C)(C2)OC3)C1(C)C", "note": "(stereo not shown) [Material 570]", "Comment Code": "DEFHJK"}, {"compound": "O=Cc1ccc2c(c1)OCO2", "note": "[Material 287]", "Comment Code": "BCGIK"}, {"compound": "C=C(C)C1CCC(C)C(=O)C1", "note": "(stereo not shown) [Material 443]", "Comment Code": "ACGIJKL"}, {"compound": "CCCCCC1(C)CCC(C)(C)C1=O", "note": "(stereo not shown) [Material 1115]", "Comment Code": "BDFGIJKL"}, {"compound": "CC1CC2CCC3C(C2O1)C(C)(C)C(C)C3(C)C", "note": "(stereo not shown) [Material 1097]", "Comment Code": "DEFHJK"}, {"compound": "COC(C)(C)C1CC=C(C)CC1", "note": "(stereo not shown) [Material 20]", "Comment Code": "ADHIJKL"}, {"compound": "COC(C)(C)CCO", "note": "[Material 812]", "Comment Code": "ACGIKL"}, {"compound": "CC(C)CCCC(C)CC=O", "note": "(stereo not shown) [Material 27]", "Comment Code": "ADGIJKL"}, {"compound": "CC(=O)C1=C(C)[C@@H]2C[C@@]3(C1)[C@H](C)CC[C@H]3C2(C)C", "note": "[Material 1129]", "Comment Code": "DHJK"}, {"compound": "CC1(CO)CC1CC1CC2CC2(C)C1(C)C", "note": "(stereo not shown) [Material 185]", "Comment Code": "DEFHJK"}]}, {"test": "Comment Code material properties: vapor pressure, ClogP, probability of ingredient color instability, odor detection threshold, melamine formaldehyde PMC headspace response ratio and leakage, liquid dish neat product liquid-air partition coefficient", "format": "physicochemical", "details": "letter codes A-L: vapor pressure, ClogP, probability of ingredient color instability, odor detection threshold, PMC headspace response ratio, PMC leakage, liquid dish liquid-air partition coefficient; Table 1 materials with at least one MORV from 1 to 5", "values": [{"compound": "COC1C=CC2C3CCC(C3)C12", "note": "(stereo not shown) [Material 1120]", "Comment Code": "ACEFHJKL"}, {"compound": "C1CC2C3CC(C2C1)C1(CCCO1)C3", "note": "(stereo not shown) [Material 1137]", "Comment Code": "DEFGJKL"}, {"compound": "CCC=CCCOC(=O)C(C)C", "note": "[Material 1125]", "Comment Code": "ADEFHJKL"}, {"compound": "CC(=O)C1=C(C)[C@@H]2C[C@@]3(C1)[C@H](C)CC[C@H]3C2(C)C", "note": "[Material 1129]", "Comment Code": "DHJK"}]}]}
